Assay results published in patent publication US20120004137A1, “IDENTIFICATION OF NUCLEIC ACID DELIVERY VEHICLES USING DNA DISPLAY” (X-Body, Inc., priority 2009, published 2012).
Ends that are not written are not given here. * marks the point of attachment. Biotin = O=C1N[C@H]2[C@H](CS[C@H]2CCCCC(=O)*)N1

Tested on: HEK293T cells
Experiment: Transfection-independent cytoplasmic entry, T7 RNAP RT-PCR assay
Format: cell-based
Settings: 40 pmol biotin:streptavidin dsDNA-SA-peptide assembly added without transfection reagent to HEK293T cells transiently transfected with T7_pEF/myc/cyto; lysed 18 hours later; FIG. 14 bottom panel
Description: To determine if cytoplasmic T7 would be active as a polymerase in mammalian cells, we developed a transient transfection assay in HEK293T cells (FIG. 5). Cells were seeded in 24-well dishes at 350,000 cells/well and then incubated overnight in Eagle's Minimum Essential Medium supplemented with 10% fetal bovine serum (FBS). A DNA template containing the T7 promoter upstream of the coding region of a VH antibody domain was prepared by PCR as follows. VH DNA from a naïve human VH library was PCR amplified (Strategene 600312) with a 5′ oligo coding for in vitro transcription and translation signal T7TMV (5′-TAATACG […]-3′; SEQ ID NO: 3)) and a 3′ oligo annealing to the C-terminal VH DNA Cmu and SA linker region, Y15 (5′-[…]-3′; SEQ ID NO: 4). The PCR product was gel purified. […] This specific RNA is then detected and amplified by RT-PCR. […]
For the cytoplasmic entry selections to be successful, biotin-streptavidin assemblies of oligonucleotide and encoded peptide or protein must be competent as T7 polymerase templates. To test whether a complex of biotinylated peptide or VH binder assembled with streptavidin can be transfected into cells, transcribed by T7 RNAP, and detected by RT-PCR, the above VH DNA was modified to carry both SP6 and T7 promoter sequences at the 5′ end (5′-[…]-3′; SEQ ID NO: 9) and Cmu-flag-SA-polyA sequence at the 3′ end (FIG. 12). […]

Substance | cellular uptake / RT-PCR activity as a result of cytoplasmic T7 polymerase activity
Biotin-KKWKMRRNQFWVKVQRG [ANT] | cellular uptake of the peptide assemblies occurs
Biotin-YGRKKRRQRRR [TAT] | cellular uptake of the peptide assemblies occurs
